In brackets after ≈: the same amount, converted by molar mass.
Columns and labels:
C. ramosum = assay: MIC, in vitro antibacterial activity (standard strains); assay type: cell-based; conditions: Thomasclavelia ramosa
MR S. aureus KYB 623 = assay: Therapeutic efficacy against systemic infections in mice, MR S. aureus KYB 623; conditions: Staphylococcus aureus, in Mus musculus, po, 1 h
S. pneumoniae S-4288 = assay: Therapeutic efficacy against systemic infections in mice, S. pneumoniae S-4288; conditions: Streptococcus pneumoniae, S4288, in Mus musculus, po, 1 h
[1] = system: Bacillus subtilis PCI 219; assay: MIC, in vitro antibacterial activity (standard strains); assay type: cell-based; conditions: Bacillus subtilis, PCI219
K. pneumoniae 1-220S = assay: as above; assay type: cell-based, Klebsiella pneumoniae; conditions: Klebsiella pneumoniae, 1220S
B. fragilis 0558 = assay: as above; assay type: cell-based, Bacteroides fragilis; conditions: Bacteroides fragilis, 0558
[2] = system: Bacteroides fragilis GM 7000; assay: as above; assay type: cell-based; conditions: Bacteroides fragilis, GM7000
E. coli ML 4707 [3] = assay: as above; assay type: cell-based, Escherichia coli; conditions: Escherichia coli, ML4707, 10^6 cells/ml; Gram -; Table 1
[4] = system: Morganella morganii IID 602; assay: as above; assay type: cell-based; conditions: Morganella morganii, IID602; 10^6 cells/ml; Gram -; read-out: MIC
B. distasonis 8503 = assay: as above; assay type: cell-based; conditions: Parabacteroides distasonis, 8503
B. fragilis 25285 = assay: as above; assay type: cell-based, Bacteroides fragilis; conditions: Bacteroides fragilis, 25285
E. coli ML 4707 [5] = assay: Therapeutic efficacy against systemic infections in mice, E. coli ML 4707; conditions: Escherichia coli, ML4707, in Mus musculus, po, 1 h
[6] = system: Pseudomonas aeruginosa V-1; assay: MIC, in vitro antibacterial activity (standard strains); assay type: cell-based; conditions: Pseudomonas aeruginosa, V1
[7] = system: Proteus vulgaris IFO 3167; assay: as above; assay type: cell-based; conditions: Proteus vulgaris, IFO3167
Shigella sonnei IID 969 = assay: as above; assay type: cell-based; conditions: Shigella sonnei, IID969; 10^6 cells/ml; Gram -; read-out: MIC
Protocol: Minimal inhibitory concentrations (MICs) were determined in accordance with the method recommended by Japan Society of Chemotherapy.

Pst. micros UPI 5464-1 = assay: as above; assay type: cell-based; conditions: Parvimonas micra, UPI54641; 10^6 cells/ml; Gram +; read-out: MIC
[8] = system: Veillonella parvula KYA 10790; assay: as above; assay type: cell-based; conditions: Veillonella parvula, KYA10790; 10^6 cells/ml; Gram -; read-out: MIC
[9] = system: Citrobacter freundii IID 976; assay: as above; assay type: cell-based; conditions: Citrobacter freundii, IID976

## O=C(O)c1cn(C2CC2)c2cc(N3CCNCC3)c(F)cc2c1=O [CPFX, ciprofloxacin, reference compound]
C. ramosum
  MIC: 6.25 µg/mL (≈ 18.9 µM)
MR S. aureus KYB 623
  ED50: 37 mg/kg
S. pneumoniae S-4288
  ED50: > 100 mg/kg
[1]
  MIC: 0.05 µg/mL (≈ 0.151 µM)
K. pneumoniae 1-220S
  MIC: 0.05 µg/mL (≈ 0.151 µM)
B. fragilis 0558
  MIC: 3.13 µg/mL (≈ 9.45 µM)
[2]
  MIC: 3.13 µg/mL (≈ 9.45 µM)
E. coli ML 4707 [3]
  MIC: ≤ 0.0063 µg/mL
[4]
  MIC: 0.05 µg/mL (≈ 0.151 µM)
B. distasonis 8503
  MIC: 6.25 µg/mL (≈ 18.9 µM)
B. fragilis 25285
  MIC: 6.25 µg/mL (≈ 18.9 µM)
E. coli ML 4707 [5]
  ED50: 1.4 mg/kg
[6]
  MIC: 0.2 µg/mL (≈ 0.604 µM)
[7]
  MIC: ≤ 0.0063 µg/mL
Shigella sonnei IID 969
  MIC: ≤ 0.0063 µg/mL
Pst. micros UPI 5464-1
  MIC: 0.2 µg/mL (≈ 0.604 µM)
[8]
  MIC: 0.2 µg/mL (≈ 0.604 µM)
[9]
  MIC: ≤ 0.0063 µg/mL

Source: US4753953A, “Pyridonecarboxylic acid derivatives and antibacterial pharmaceutical compositions thereof” (priority 1985, dated 1988)
